Test results as given in patent US20100317607A1, “USE OF COMPOUNDS FOR PREPARING ANTI-TUBERCULOSIS AGENTS” (INFECTIOUS DISEASE RESEARCH INSTITUTE, priority 2007, published 2010).
In brackets after ≈: the same amount, converted by molar mass.

How the values were obtained:
[1] = tested on: non replicating phase of M. tuberculosis (H37Rv with a plasmid with an acetimidase promoter driving a luciferase gene); assay: microbe, parasite or virus in culture; assay type: cell-based; settings: non replicating M. tuberculosis H37Rv luciferase strain; for MIC: Mycobacterium tuberculosis, read-out: LORA (TB growth inhibition, MIC)
[2] = tested on: H37Rv strain of M. tuberculosis; assay: Alamar Blue Susceptibility Test (MABA); assay type: cell-based; settings: H37Rv strain of M. tuberculosis, Alamar Blue; for MIC: Mycobacterium tuberculosis, read-out: MABA (TB growth inhibition, colourimetric assay)

| SMILES | MIC [1] | MIC [2] | LORA (TB growth inhibition, MIC) [1] | MABA (TB growth inhibition, colourimetric assay) [2] |
| --- | --- | --- | --- | --- |
| CC(Nc1nc(N2CCCCC2)nc2ccccc12)c1ccccc1 (stereo not drawn) [Compound 12, N-(1-Phenylethyl)-2-(piperidin-1-yl)quinazolin-4-amine] | 10 to 50 µM (≈ 3.32 to 16.6 µg/mL) | 10 to 50 µM (≈ 3.32 to 16.6 µg/mL) |  |  |
| c1coc(CNc2nc(N3CCCCC3)nc3ccccc23)c1 [Compound 13, N-(Furan-2-ylmethyl)-2-(piperidin-1-yl)quinazolin-4-amine] | 10 to 50 µM (≈ 3.08 to 15.4 µg/mL) | < 10 µM |  |  |
| CC(Nc1nc(N2CCCC2)nc2ccccc12)c1ccccc1 (stereo not drawn) [Compound 14, N-(1-Phenylethyl)-2-(pyrrolidin-1-yl)quinazolin-4-amine] | 10 to 50 µM (≈ 3.18 to 15.9 µg/mL) | 10 to 50 µM (≈ 3.18 to 15.9 µg/mL) |  |  |
| CC(Nc1nc(N2CCN(S(=O)(=O)c3ccccc3)CC2)nc2ccccc12)c1ccccc1 (stereo not drawn) [Compound 15, N-(1-Phenylethyl)-2-(4-(phenylsulfonyl)piperazin-1-yl)quinazolin-4-amine] |  | 50 to 128 µM (≈ 23.7 to 60.6 µg/mL) | − |  |
| c1ccc2c(NC3C4CC5CC(C4)CC3C5)nc(N3CCOCC3)nc2c1 (stereo not drawn) [Compound 16, N-(2′-Adamantyl)-2-morpholinoquinazolin-4-amine] |  |  | +++ (10-50 μM=+++) | +++ (10-50 μM=+++) |
| COc1cc2nc(N3CCOCC3)nc(NCc3ccccc3)c2cc1OC [Compound 17, N-Benzyl-6,7-dimethoxy-2-morpholinoquinazolin-4-amine] |  | 50 to 128 µM (≈ 19 to 48.7 µg/mL) | − |  |
| c1ccc(CNc2nc(NCc3ccccc3)c3ccccc3n2)cc1 [Compound 18, N^2,N^4-Dibenzylquinazoline-2,4-diamine] | 10 to 50 µM (≈ 3.4 to 17 µg/mL) | 10 to 50 µM (≈ 3.4 to 17 µg/mL) |  |  |
| c1ccc2c(NC3C4CC5CC(C4)CC3C5)nc(N3CCOCC3)nc2c1 (stereo not drawn) [Compound 19, 2-Morpholino-N-(1-[2′-adamantyl])quinazolin-4-amine] |  |  | +++ (10-50 μM=+++) | +++ (10-50 μM=+++) |
| Cn1ncc2c(NCc3ccccc3)nc(N3CCCC3)nc21 [Compound 20, N-Benzyl-1-methyl-6-(pyrrolidin-1-yl)-1H-pyrazolo[3,4-d]pyrimidin-4-amine] |  | 50 to 128 µM (≈ 15.4 to 39.5 µg/mL) | − |  |
| CC(Nc1nc(N2CCN(C(=O)C3CCCC3)CC2)nc2ccccc12)c1ccccc1 (stereo not drawn) [Compound 21, Cyclopentyl(4-(4-(1-phenylethylamino)quinazolin-2-yl)piperazin-1-yl)methanone] | 10 to 50 µM (≈ 4.3 to 21.5 µg/mL) | 10 to 50 µM (≈ 4.3 to 21.5 µg/mL) |  |  |
| c1ccc(CNc2nc(N3CCCC3)nc3ccccc23)cc1 [Compound 22, N-Benzyl-2-(pyrrolidin-1-yl)quinazolin-4-amine] | 10 to 50 µM (≈ 3.04 to 15.2 µg/mL) | < 10 µM |  |  |
| c1ccc(CNc2nc(N3CCCCC3)c3ccccc3n2)cc1 [Compound 24, N-Benzyl-4-(piperidin-1-yl)quinazolin-2-amine] | 10 to 50 µM (≈ 3.18 to 15.9 µg/mL) | 10 to 50 µM (≈ 3.18 to 15.9 µg/mL) |  |  |
| c1ccc(CNc2nc(N3CCc4ccccc4C3)nc3ccccc23)cc1 [Compound 30, N-Benzyl-2-(3,4-dihydroisoquinolin-2(1H)-yl)quinazolin-4-amine] | < 10 µM | < 10 µM |  |  |
| c1ccc(CCNc2nc(N3CCCCC3)nc3ccccc23)cc1 [Compound 33, N-Phenethyl-2-(piperidin-1-yl)quinazolin-4-amine] | 10 to 50 µM (≈ 3.32 to 16.6 µg/mL) | < 10 µM |  |  |
| Clc1ccc(CNc2nc(N3CCCCC3)nc3ccccc23)cc1 [Compound 34, N-(4-Chlorobenzyl)-2-(piperidin-1-yl)quinazolin-4-amine] | 10 to 50 µM (≈ 3.53 to 17.6 µg/mL) | < 10 µM |  |  |
| CN(Cc1ccccc1)c1nc(N2CCCCC2)nc2ccccc12 [Compound 35, N-Benzyl-N-methyl-2-(piperidin-1-yl)quinazolin-4-amine] | < 10 µM | < 10 µM |  |  |
| c1ccc2c(c1)CCN(c1nc(N3CCCCC3)nc3ccccc13)C2 [Compound 36, 4-(3,4-Dihydroisoquinolin-2(1H)-yl)-2-(piperidin-1-yl)quinazoline] | 10 to 50 µM (≈ 3.44 to 17.2 µg/mL) | < 10 µM |  |  |
| c1ccc2c(CNc3nc(N4CCCCC4)nc4ccccc34)cccc2c1 [Compound 37, N-(Naphthalen-1-ylmethyl)-2-(piperidin-1-yl)quinazolin-4-amine] | < 10 µM | < 10 µM |  |  |
